Molecular target: T1, Human BCL-XL protein (N-terminal HiBiT tagged BCL-XL expressed in HT1080 cells) (Homo sapiens, UniProt Q07817)
T1 construct: expressed in transfected cells; host or cells: HT-1080 (ATCC CCL-121), stably transduced with lentivirus pLV-UBC-N-HiBiT-BCL-XL-PGK-puro and selected with puromycin
Assay: HiBiT Based Degradation Assay
Format: cell-based
Settings: 24 hours incubation; for DC50: BCL-XL degradation, HT1080 cells expressing N-HiBiT-BCL-XL, normalized with DMSO control, geometric mean for multiple data points, read-out: EC50 (24 h); for Ymin (24 h): bottom of BCL-XL degradation curve (remaining HiBiT-BCL-XL signal vs DMSO control), HT1080 cells
Method in brief: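 BCL-XL degradation was read as Nano-Glo HiBiT lytic luminescence relative to DMSO after a 24 h compound treatment of HT1080 cells carrying stably integrated N-HiBiT-BCL-XL. EC50 values come from four-parameter logistic curves, with the hook-curve minimum fixed as bottom, and are geometric means where tested repeatedly.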

T1 sequence (Q07817 whole entry): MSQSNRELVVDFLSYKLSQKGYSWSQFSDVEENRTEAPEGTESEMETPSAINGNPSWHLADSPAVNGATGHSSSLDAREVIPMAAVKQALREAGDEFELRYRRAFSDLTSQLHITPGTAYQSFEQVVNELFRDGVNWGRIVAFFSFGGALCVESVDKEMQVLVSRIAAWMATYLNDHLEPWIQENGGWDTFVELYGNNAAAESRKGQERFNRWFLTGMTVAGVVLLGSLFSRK

Structure (SMILES) | DC50 [nM] | Ymin (24 h)
Cc1cc(OC[C@@H](C)CC2CCN(CC(=O)Nc3ccc4c(C5CCC(=O)NC5=O)nn(C)c4c3)CC2)ccc1-c1ccc(N2CCc3ccnc(C(=O)Nc4nc5ccccc5s4)c3C2)nc1C(=O)O (single isomer, unassigned) [Compound 140b] | 10 to 100 | A (Ymin < 30%)
Cc1c(OCCC2CC3(CCN(CC(=O)Nc4ccc5c(C6CCC(=O)NC6=O)nn(C)c5c4)CC3)C2)cccc1-c1ccc(N2CCc3cccc(C(=O)Nc4nc5ccccc5s4)c3C2)nc1C(=O)O (centres unmarked) [Compound 114, 6-(8-(benzo[d]thiazol-2-ylcarbamoyl)-3,4-dihydroisoquinolin-2(1H)-yl)-3-(3-(2-(7-(2-((3-(2,6-dioxopiperidin-3-yl)-1-methyl-1H-indazol-6-yl)amino)-2-oxoethyl)-7-azaspiro[3.5]nonan-2-yl)ethoxy)-2-methylphenyl)picolinic acid] | 10 to 100 | B (30% ≤ Ymin < 50%)
C[C@@H]1C[C@H](CCCOc2ccc(-c3ccc(N4CCc5cccc(C(=O)Nc6nc7ccccc7s6)c5C4)nc3C(=O)O)c(C(F)(F)F)c2)CCN1CC(=O)Nc1ccc2c(C3CCC(=O)NC3=O)nn(C)c2c1 (some centres unmarked) [Compound 209c] | < 10 | A (Ymin < 30%)
Cc1cc(OC[C@H]2C[C@@H]2C2CCN(CC(=O)Nc3ccc4c(C5CCC(=O)NC5=O)nn(C)c4c3)CC2)ccc1-c1ccc(N2CCc3cccc(C(=O)Nc4nc5ccccc5s4)c3C2)nc1C(=O)O (relative stereo) [Compound 1003a, 6-(8-(benzo[d]thiazol-2-ylcarbamoyl)-3,4-dihydroisoquinolin-2(1H)-yl)-3-(4-(((1S,2R)-2-(1-(2-((3-(2,6-dioxopiperidin-3-yl)-1-methyl-1H-indazol-6-yl)amino)-2-oxoethyl)piperidin-4-yl)cyclopropyl)methoxy)-2-methylphenyl)picolinic acid] | < 10 | A (Ymin < 30%)
Cn1nc(C2CCC(=O)NC2=O)c2ccc(NC(=O)CN3CCC(CCCOc4ccc(-c5ccc(N6CCc7cccc(C(=O)Nc8nc9ccccc9s8)c7C6)nc5C(=O)O)c(C(F)(F)F)c4)CC3)c(F)c21 (centres unmarked) [Compound 183] | 10 to 100 | B (30% ≤ Ymin < 50%)
COc1c(NC(=O)CN2CCC3(CC2)CC(Oc2cccc(-c4ccc(N5CCc6cccc(C(=O)Nc7nc8ccccc8s7)c6C5)nc4C(=O)O)c2C)C3)ccc2c(C3CCC(=O)NC3=O)nn(C)c12 (centres unmarked) [Compound 164, 6-(8-(benzo[d]thiazol-2-ylcarbamoyl)-3,4-dihydroisoquinolin-2(1H)-yl)-3-(3-((7-(2-((3-(2,6-dioxopiperidin-3-yl)-7-methoxy-1-methyl-1H-indazol-6-yl)amino)-2-oxoethyl)-7-azaspiro[3.5]nonan-2-yl)oxy)-2-methylphenyl)picolinic acid] | 10 to 100 | B (30% ≤ Ymin < 50%)
Cc1c(OC[C@H]2C[C@@H]2C2CCN(CC(=O)Nc3ccc4c(C5CCC(=O)NC5=O)nn(C)c4c3)CC2)cccc1-c1ccc(N2CCc3cccc(C(=O)Nc4nc5ccccc5s4)c3C2)nc1C(=O)O (single isomer, unassigned) [Compound 1001b] | 10 to 100 | B (30% ≤ Ymin < 50%)
